“And” between values parts separate entries of the source, which are not always exact repeats. Equal entries are not always repeated. Inconclusive results and toxic doses are left out.
Tested on: BDF1 mice, P388 leukemia ip, median survival T/C
Experiment: NCI In Vivo Anticancer Drug Screen. Data for tumor model P388 Leukemia (intraperitoneal) in B6D2F1 (BDF1) mice
Details: endpoint: median survival time, higher = longer survival
How it was run: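 In tumour-bearing mice, survival after compound treatment is set against the vehicle group and given as a quotient.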

[1] = dose: 25.0 mg/kg/injection, schedule: Q01DX009 (ip), vehicle: saline with Tween-80
[2] = dose: 50.0 mg/kg/injection, schedule: Q01DX009 (ip), vehicle: saline with Tween-80
[3] = dose: 100.0 mg/kg/injection, schedule: Q04DX003 (ip), vehicle: Klucel (hydroxypropylcellulose) (HPC)
[4] = dose: 200.0 mg/kg/injection, schedule: Q04DX003 (ip), vehicle: Klucel (hydroxypropylcellulose) (HPC)
[5] = dose: 400.0 mg/kg/injection, schedule: Q04DX003 (ip), vehicle: Klucel (hydroxypropylcellulose) (HPC)
[6] = dose: 100.0 mg/kg/injection, schedule: Q01DX009 (ip), vehicle: saline with Tween-80
[7] = dose: 200.0 mg/kg/injection, schedule: Q01DX009 (ip), vehicle: saline with Tween-80
[8] = dose: 12.5 mg/kg/injection, schedule: Q01DX009 (ip), vehicle: Klucel (hydroxypropylcellulose) (HPC)
[9] = dose: 25.0 mg/kg/injection, schedule: Q01DX009 (ip), vehicle: Klucel (hydroxypropylcellulose) (HPC)
[10] = dose: 25.0 mg/kg/injection, schedule: Q04DX003 (ip), vehicle: Klucel (hydroxypropylcellulose) (HPC)
[11] = dose: 400.0 mg/kg/injection, schedule: Q01DX009 (ip), vehicle: water
[12] = dose: 100.0 mg/kg/injection, schedule: Q04DX003 (ip), vehicle: saline with Tween-80
[13] = dose: 200.0 mg/kg/injection, schedule: Q04DX003 (ip), vehicle: saline with Tween-80
[14] = dose: 400.0 mg/kg/injection, schedule: Q04DX003 (ip), vehicle: saline with Tween-80
[15] = dose: 50.0 mg/kg/injection, schedule: Q01DX009 (ip), vehicle: saline
[16] = dose: 100.0 mg/kg/injection, schedule: Q01DX009 (ip), vehicle: saline
[17] = dose: 200.0 mg/kg/injection, schedule: Q04DX003 (ip), vehicle: saline
[18] = dose: 400.0 mg/kg/injection, schedule: Q04DX003 (ip), vehicle: saline
[19] = dose: 50.0 mg/kg/injection, schedule: Q01DX009 (ip), vehicle: Klucel (hydroxypropylcellulose) (HPC)
[20] = dose: 100.0 mg/kg/injection, schedule: Q01DX009 (ip), vehicle: Klucel (hydroxypropylcellulose) (HPC)
[21] = dose: 25.0 mg/kg/injection, schedule: Q01DX009 (ip), vehicle: saline

## Cc1ccc(C[n+]2cccc3c([N+](=O)[O-])cccc32)cc1
dose: 12.5 mg/kg/injection, schedule: Q01DX009 (ip), vehicle: saline with Tween-80
  T/C: 108 % of control
[1]
  T/C: 103 % of control
[2]
  T/C: 113 % of control

## C=C(C)Cc1cnc(SCc2ccccc2)[nH]c1=O
[3]
  T/C: 104 % of control
[4]
  T/C: 109 % of control
[5]
  T/C: 113 % of control

## CCN(Cc1ccccc1)c1ccc(/C=C/c2ccnc3ccccc23)cc1
[2]
  T/C: 100 % of control
[6]
  T/C: 90 % of control
[7]
  T/C: 108 % of control

## O.[Cu].[Cu]
dose: 6.25 mg/kg/injection, schedule: Q01DX009 (ip), vehicle: Klucel (hydroxypropylcellulose) (HPC)
  T/C: 90 % of control
dose: 6.25 mg/kg/injection, schedule: Q04DX003 (ip), vehicle: Klucel (hydroxypropylcellulose) (HPC)
  T/C: 90 % of control
[8]
  T/C: 110 % of control
dose: 12.5 mg/kg/injection, schedule: Q04DX003 (ip), vehicle: Klucel (hydroxypropylcellulose) (HPC)
  T/C: 90 % of control
[9]
  T/C: 95 % of control
[10]
  T/C: 118 % of control

## CN(C)CCCOC(=O)CC(C)(C)C
dose: 50.0 mg/kg/injection, schedule: Q01DX005 (ip), vehicle: water
  T/C: 91 % of control
dose: 100.0 mg/kg/injection, schedule: Q01DX005 (ip), vehicle: water
  T/C: 94 % of control

## O=C1c2ccccc2C(=O)c2cc3c(cc21)CCCC3
dose: 50.0 mg/kg/injection, schedule: Q01DX009 (ip), vehicle: water
  T/C: 94 % of control
dose: 100.0 mg/kg/injection, schedule: Q01DX009 (ip), vehicle: water
  T/C: 87 % of control
[11]
  T/C: 96 % of control
dose: 800.0 mg/kg/injection, schedule: Q01DX009 (ip), vehicle: water
  T/C: 107 % of control

## S=c1nn[nH]n1-c1ccccc1.[Zn+2]
[2]
  T/C: 109 % of control
[6]
  T/C: 118 % of control

## Nc1nc(N)c2ncc(/C=C/c3ccc(Cl)c(Cl)c3)nc2n1
[12]
  T/C: 91 % of control
[13]
  T/C: 90 % of control
[14]
  T/C: 108 % of control

## CC1=CP(=O)(O)CC1
[15]
  T/C: 95 % of control
[16]
  T/C: 95 % of control

## CC(CS(=O)(=O)O)NC(CO)(CO)CO (centres undefined)
[16]
  T/C: 87 % of control
dose: 100.0 mg/kg/injection, schedule: Q04DX003 (ip), vehicle: saline
  T/C: 100 % of control
[17]
  T/C: 109 % of control
dose: 400.0 mg/kg/injection, schedule: Q01DX009 (ip), vehicle: saline
  T/C: 100 % of control
[18]
  T/C: 90 % of control

## CSc1nnnn1-c1ccccc1
dose: 16.5 mg/kg/injection, schedule: Q01DX009 (ip), vehicle: Klucel (hydroxypropylcellulose) (HPC)
  T/C: 104 % of control
[9]
  T/C: 95 % of control
dose: 37.5 mg/kg/injection, schedule: Q01DX009 (ip), vehicle: Klucel (hydroxypropylcellulose) (HPC)
  T/C: 104 % of control
[19]
  T/C: 100 % of control
[20]
  T/C: 100 % of control

## [N-]=[N+]=CC(=O)NCC(=O)NO
dose: 180.0 mg/kg/injection, schedule: Q01DX009 (ip), vehicle: water
  T/C: 172 % of control
dose: 270.0 mg/kg/injection, schedule: Q01DX009 (ip), vehicle: water
  T/C: 172 % of control
[11]
  T/C: 204 % of control

## Cc1ccc(NC(=O)c2ccccc2C(=O)O)cc1Cl
[3]
  T/C: 95 % of control
[4]
  T/C: 95 % of control
[5]
  T/C: 91 % of control

## NC(=O)OCCI
dose: 50.0 mg/kg/injection, schedule: Q04DX003 (ip), vehicle: other
  T/C: 100 % of control
dose: 100.0 mg/kg/injection, schedule: Q04DX003 (ip), vehicle: other
  T/C: 120 % of control
dose: 132.0 mg/kg/injection, schedule: Q04DX003 (ip), vehicle: Klucel (hydroxypropylcellulose) (HPC)
  T/C: 150 % of control and 177 % of control
[4]
  T/C: 90 % of control
dose: 200.0 mg/kg/injection, schedule: Q04DX003 (ip), vehicle: other
  T/C: 155 % of control

## O=C=Nc1ccc(Cl)c(Cl)c1 (tested in a mixture with another compound)
dose: 50.0 mg/kg/injection, schedule: Q01DX011 (ip), vehicle: Klucel (hydroxypropylcellulose) (HPC)
  T/C: 107 % of control
dose: 100.0 mg/kg/injection, schedule: Q01DX011 (ip), vehicle: Klucel (hydroxypropylcellulose) (HPC)
  T/C: 109 % of control
dose: 200.0 mg/kg/injection, schedule: Q01DX011 (ip), vehicle: Klucel (hydroxypropylcellulose) (HPC)
  T/C: 100 % of control
dose: 400.0 mg/kg/injection, schedule: Q01DX011 (ip), vehicle: Klucel (hydroxypropylcellulose) (HPC)
  T/C: 102 % of control

## S=c1[nH]c2ccccc2s1.[Zn+2]
[2]
  T/C: 98 % of control
[6]
  T/C: 100 % of control
[7]
  T/C: 99 % of control

## O=C(c1ccccc1)N1CC1
dose: 25.0 mg/kg/injection, schedule: Q01DX009 (ip), vehicle: water
  T/C: 101 % of control
dose: 25.0 mg/kg/injection, schedule: Q04DX003 (ip), vehicle: water
  T/C: 115 % of control
dose: 50.0 mg/kg/injection, schedule: Q04DX003 (ip), vehicle: water
  T/C: 92 % of control
dose: 100.0 mg/kg/injection, schedule: Q04DX003 (ip), vehicle: water
  T/C: 100 % of control
dose: 200.0 mg/kg/injection, schedule: Q04DX003 (ip), vehicle: water
  T/C: 109 % of control
[11]
  T/C: 112 % of control
dose: 400.0 mg/kg/injection, schedule: Q04DX003 (ip), vehicle: water
  T/C: 115 % of control

## COc1ccc(CC(=O)Cc2ccc(OC)c(OC)c2)cc1OC
[1]
  T/C: 104 % of control
[2]
  T/C: 113 % of control
[6]
  T/C: 113 % of control and 123 % of control
[12]
  T/C: 109 % of control
[7]
  T/C: 95 % of control and 120 % of control
[13]
  T/C: 104 % of control
dose: 400.0 mg/kg/injection, schedule: Q01DX009 (ip), vehicle: saline with Tween-80
  T/C: 118 % of control
[14]
  T/C: 90 % of control

## Cn1cnnc1N
dose: 100.0 mg/kg/injection, schedule: Q01DX001 (ip), vehicle: saline
  T/C: 100 % of control
dose: 200.0 mg/kg/injection, schedule: Q01DX001 (ip), vehicle: saline
  T/C: 95 % of control
dose: 400.0 mg/kg/injection, schedule: Q01DX001 (ip), vehicle: saline
  T/C: 104 % of control

## OC(CNc1ccc(CSc2ccccc2)cc1)c1ccccc1 (centres undefined)
dose: 50.0 mg/kg/injection, schedule: Q01DX009 (ip), vehicle: other
  T/C: 120 % of control
dose: 100.0 mg/kg/injection, schedule: Q01DX009 (ip), vehicle: other
  T/C: 123 % of control

## COc1ccc2c(Cl)cc(NC(=O)Nc3c(C)cccc3C)nc2c1
[6]
  T/C: 88 % of control

## C#CCOCCBr
dose: 22.0 mg/kg/injection, schedule: Q01DX009 (ip), vehicle: saline
  T/C: 122 % of control

## CC(C)C1C(=O)N2CCCC2C2(O)OC(NC(=O)C3C=C4c5cccc6[nH]cc(c56)CC4N(C)C3)(C(C)C)C(=O)N12 (centres undefined)
[8]
  T/C: 109 % of control
[21]
  T/C: 115 % of control
[10]
  T/C: 91 % of control
[19]
  T/C: 109 % of control
[15]
  T/C: 110 % of control
dose: 50.0 mg/kg/injection, schedule: Q04DX003 (ip), vehicle: Klucel (hydroxypropylcellulose) (HPC)
  T/C: 91 % of control
[20]
  T/C: 118 % of control
[16]
  T/C: 109 % of control and 120 % of control
[3]
  T/C: 104 % of control
[4]
  T/C: 100 % of control
[17]
  T/C: 120 % of control
[18]
  T/C: 100 % of control

## CCO/C=C1\SC(=S)N(c2ccc(C(=O)O)cc2)C1=O
dose: 11.0 mg/kg/injection, schedule: Q01DX009 (ip), vehicle: saline
  T/C: 104 % of control
[21]
  T/C: 122 % of control
dose: 37.5 mg/kg/injection, schedule: Q01DX009 (ip), vehicle: saline
  T/C: 100 % of control
[6]
  T/C: 116 % of control

## CC1CC(C)(C)N=C(C(C)(C)c2ccccc2)O1 (centres undefined)
dose: 50.0 mg/kg/injection, schedule: Q04DX003 (ip), vehicle: saline sonified
  T/C: 100 % of control
dose: 100.0 mg/kg/injection, schedule: Q04DX003 (ip), vehicle: saline sonified
  T/C: 100 % of control
dose: 200.0 mg/kg/injection, schedule: Q04DX003 (ip), vehicle: saline sonified
  T/C: 90 % of control

## C[CH2][Ge]([CH2]C)[CH2]C.C[CH2][Ge]([CH2]C)[CH2]C.C[CH2][Ge]([CH2]C)[O][Ge]([CH2]C)[CH2]C
[2]
  T/C: 115 % of control and 116 % of control
[6]
  T/C: 112 % of control

Source: PubChem BioAssay AID328 (DTP/NCI, 2004)
